Measured values as given in PubChem BioAssay (NCI).
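The compound was tested at five concentrations on cells cultured in 96-well plates, with a 48-hour exposure period. TGI denotes the concentration required for complete inhibition of growth.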

Experiments:
Assay in all cases: inhibition of tumour cell growth, NCI panel, 48 h
[1] = tested on: A498 renal
[2] = tested on: MDA-MB-435
[3] = tested on: HCT-15 colon
[4] = tested on: LOX IMVI melanoma
[5] = tested on: A549 NSCLC
[6] = tested on: NCI-H226 lung
[7] = tested on: MDA-N
[8] = tested on: HT29 colon
[9] = tested on: T-47D breast
[10] = tested on: TK-10 renal
[11] = tested on: SF-268 CNS
[12] = tested on: ACHN renal
[13] = tested on: SK-OV-3 ovarian
[14] = tested on: SR leukemia
[15] = tested on: HOP-62 NSCLC
[16] = tested on: OVCAR-4 ovarian
[17] = tested on: HCC-2998 colon
[18] = tested on: OVCAR-3 ovarian
[19] = tested on: SF-295 CNS
[20] = tested on: OVCAR-8 ovarian
[21] = tested on: HL-60(TB) leukemia
[22] = tested on: UACC-62 melanoma
[23] = tested on: KM12 colon
[24] = tested on: HOP-92 NSCLC
[25] = tested on: MALME-3M melanoma
[26] = tested on: EKVX NSCLC
[27] = tested on: SK-MEL-5 melanoma
[28] = tested on: HS 578T breast
[29] = tested on: SNB-75 CNS
[30] = tested on: NCI-H522 lung
[31] = tested on: NCI/ADR-RES ovarian
[32] = tested on: RXF 393 renal
[33] = tested on: SK-MEL-2 melanoma
[34] = tested on: SNB-19 CNS
[35] = tested on: K-562 leukemia
[36] = tested on: UO-31 renal
[37] = tested on: DU-145 prostate
[38] = tested on: SW-620 colon
[39] = tested on: OVCAR-5 ovarian
[40] = tested on: PC-3 prostate
[41] = tested on: MOLT-4 leukemia
[42] = tested on: U251 CNS
[43] = tested on: SK-MEL-28 melanoma
[44] = tested on: M14 melanoma
[45] = tested on: IGROV1 ovarian
[46] = tested on: NCI-H460 lung
[47] = tested on: 786-0 renal
[48] = tested on: COLO 205 colon
[49] = tested on: RPMI-8226 leukemia
[50] = tested on: SN12C renal
[51] = tested on: CAKI-1 renal
[52] = tested on: HCT-116 colon
[53] = tested on: NCI-H23 lung
[54] = tested on: SF-539 CNS
[55] = tested on: CCRF-CEM leukemia
[56] = tested on: MCF7 breast
[57] = tested on: MDA-MB-231 breast
[58] = tested on: BT-549 breast
[59] = tested on: UACC-257 melanoma
[60] = tested on: DMS 273 small cell lung
[61] = tested on: LXFL 529 NSCLC
[62] = tested on: DLD-1 colon
[63] = tested on: HOP-18 NSCLC
[64] = tested on: DMS 114 small cell lung
[65] = tested on: M19-MEL melanoma
[66] = tested on: KM20L2 colon
[67] = tested on: XF 498 CNS
[68] = tested on: SNB-78 CNS

In the case of `O=C1c2ccccc2-c2nnc3c(c21)Cc1ccccc1C3`, the TGI [1] is reported as > 10 µM, the TGI [2] is reported as > 10 µM and the TGI [3] is reported as > 10 µM. For the same compound, the TGI [4] was > 10 µM, the TGI [5] was > 10 µM and the TGI [6] was > 10 µM. For the same compound, the TGI [7] was > 10 µM, the TGI [8] was > 10 µM and the TGI [9] was > 10 µM. The TGI [10] was > 10 µM, the TGI [11] was > 10 µM and the TGI [12] was > 10 µM. The TGI [13] was > 10 µM, the TGI [14] was > 10 µM and the TGI [15] was > 10 µM. For the same compound, the TGI [16] was > 10 µM, the TGI [17] was > 10 µM and the TGI [18] was > 10 µM. The TGI [19] was > 10 µM, the TGI [20] was > 10 µM and the TGI [21] was > 10 µM. The TGI [22] was > 10 µM, the TGI [23] was > 10 µM and the TGI [24] was > 10 µM. For the same compound, the TGI [25] was > 10 µM, the TGI [26] was > 10 µM and the TGI [27] was > 10 µM. The TGI [28] was > 10 µM, the TGI [29] was > 10 µM and the TGI [30] was > 10 µM. The TGI [31] was > 10 µM, the TGI [32] was > 10 µM and the TGI [33] was > 10 µM. For the same compound, the TGI [34] was > 10 µM, the TGI [35] was > 10 µM and the TGI [36] was > 10 µM. The TGI [37] was > 10 µM, the TGI [38] was > 10 µM and the TGI [39] was > 10 µM. For the same compound, the TGI [40] was > 10 µM, the TGI [41] was > 10 µM and the TGI [42] was > 10 µM. The TGI [43] was > 10 µM, the TGI [44] was > 10 µM and the TGI [45] was > 10 µM. For the same compound, the TGI [46] was > 10 µM, the TGI [47] was > 10 µM and the TGI [48] was > 10 µM. The TGI [49] was > 10 µM, the TGI [50] was > 10 µM and the TGI [51] was > 10 µM. For the same compound, the TGI [52] was > 10 µM, the TGI [53] was > 10 µM and the TGI [54] was > 10 µM. The TGI [55] was > 10 µM, the TGI [56] was > 10 µM and the TGI [57] was > 10 µM. For the same compound, the TGI [58] was > 10 µM.
In the case of `Cc1cccc(Nc2nc3ccccc3nc2NS(=O)(=O)c2ccc(N)cc2)c1`, the TGI [2] is reported as > 100 µM, the TGI [3] is reported as > 100 µM and the TGI [4] is reported as > 100 µM. The TGI [5] was > 100 µM, the TGI [6] was > 100 µM and the TGI [7] was > 100 µM. The TGI [8] was > 100 µM, the TGI [9] was > 100 µM and the TGI [10] was > 100 µM. The TGI [11] was > 100 µM, the TGI [12] was > 100 µM and the TGI [13] was > 100 µM. For the same compound, the TGI [14] was > 100 µM, the TGI [15] was > 100 µM and the TGI [16] was 42.6 µM. For the same compound, the TGI [17] was 67.6 µM, the TGI [18] was > 100 µM and the TGI [19] was > 100 µM. For the same compound, the TGI [20] was > 100 µM, the TGI [21] was > 100 µM and the TGI [22] was > 100 µM. For the same compound, the TGI [23] was > 100 µM, the TGI [24] was > 100 µM and the TGI [25] was > 100 µM. For the same compound, the TGI [26] was > 100 µM, the TGI [27] was > 100 µM and the TGI [28] was > 100 µM. The TGI [29] was > 100 µM, the TGI [30] was > 100 µM and the TGI [31] was > 100 µM. The TGI [32] was 70.5 µM, the TGI [33] was 81.5 µM and the TGI [34] was > 100 µM. For the same compound, the TGI [35] was > 100 µM, the TGI [36] was 56.6 µM and the TGI [37] was > 100 µM. For the same compound, the TGI [38] was > 100 µM, the TGI [39] was > 100 µM and the TGI [40] was > 100 µM. For the same compound, the TGI [41] was 59.5 µM, the TGI [42] was 53.8 µM and the TGI [43] was > 100 µM. For the same compound, the TGI [44] was > 100 µM, the TGI [45] was > 100 µM and the TGI [46] was > 100 µM. The TGI [47] was > 100 µM, the TGI [48] was > 100 µM and the TGI [59] was > 100 µM. For the same compound, the TGI [49] was > 100 µM, the TGI [50] was > 100 µM and the TGI [51] was > 100 µM. For the same compound, the TGI [52] was > 100 µM, the TGI [53] was 53.3 µM and the TGI [54] was 93.9 µM. For the same compound, the TGI [55] was 57.6 µM, the TGI [56] was > 100 µM and the TGI [57] was > 100 µM. The TGI [58] was > 100 µM.
For `O=C1C(Cl)C(c2cccc([N+](=O)[O-])c2)N1n1cnc2ccccc2c1=O` (stereo not drawn), the TGI [3] was > 100 µM, the TGI [4] was > 100 µM and the TGI [5] was > 100 µM. For the same compound, the TGI [6] was > 100 µM, the TGI [8] was > 100 µM and the TGI [10] was > 100 µM. For the same compound, the TGI [11] was > 100 µM, the TGI [12] was > 100 µM and the TGI [13] was > 100 µM. For the same compound, the TGI [14] was > 100 µM, the TGI [15] was > 100 µM and the TGI [16] was > 100 µM. The TGI [17] was > 100 µM, the TGI [18] was > 100 µM and the TGI [19] was > 100 µM. For the same compound, the TGI [20] was > 100 µM, the TGI [21] was > 100 µM and the TGI [60] was > 100 µM. The TGI [22] was > 100 µM, the TGI [23] was > 100 µM and the TGI [25] was > 100 µM. The TGI [61] was > 100 µM, the TGI [26] was > 100 µM and the TGI [27] was > 100 µM. For the same compound, the TGI [62] was > 100 µM, the TGI [29] was > 100 µM and the TGI [30] was > 100 µM. For the same compound, the TGI [32] was > 100 µM, the TGI [33] was > 100 µM and the TGI [34] was > 100 µM. The TGI [35] was > 100 µM, the TGI [36] was > 100 µM and the TGI [38] was > 100 µM. For the same compound, the TGI [39] was > 100 µM, the TGI [41] was > 100 µM and the TGI [63] was > 100 µM. The TGI [42] was > 100 µM, the TGI [64] was > 100 µM and the TGI [43] was > 100 µM. The TGI [44] was > 100 µM, the TGI [65] was > 100 µM and the TGI [45] was > 100 µM. For the same compound, the TGI [46] was > 100 µM, the TGI [47] was > 100 µM and the TGI [48] was > 100 µM. For the same compound, the TGI [59] was > 100 µM, the TGI [49] was > 100 µM and the TGI [50] was > 100 µM. For the same compound, the TGI [51] was > 100 µM, the TGI [52] was > 100 µM and the TGI [53] was > 100 µM. The TGI [66] was > 100 µM.
For `CC(=O)OCC1OC(N2C(=O)[C@@H](Oc3ccccc3)[C@H]2/C=C/c2ccccc2)C(OC(C)=O)C(OC(C)=O)C1OC(C)=O` (stereo partly drawn), the TGI [1] was > 100 µM, the TGI [3] was > 100 µM and the TGI [4] was > 100 µM. For the same compound, the TGI [5] was > 100 µM, the TGI [6] was > 100 µM and the TGI [8] was > 100 µM. For the same compound, the TGI [10] was > 100 µM, the TGI [11] was > 100 µM and the TGI [12] was > 100 µM. The TGI [13] was > 100 µM, the TGI [14] was > 100 µM and the TGI [67] was > 100 µM. The TGI [15] was > 100 µM, the TGI [16] was > 100 µM and the TGI [17] was > 100 µM. For the same compound, the TGI [18] was > 100 µM, the TGI [19] was > 100 µM and the TGI [20] was > 100 µM. The TGI [21] was > 100 µM, the TGI [60] was > 100 µM and the TGI [22] was > 100 µM. For the same compound, the TGI [24] was > 100 µM, the TGI [25] was > 100 µM and the TGI [61] was > 100 µM. For the same compound, the TGI [26] was > 100 µM, the TGI [27] was > 100 µM and the TGI [62] was > 100 µM. For the same compound, the TGI [29] was 90 µM, the TGI [68] was > 100 µM and the TGI [30] was > 100 µM. The TGI [32] was > 100 µM, the TGI [33] was > 100 µM and the TGI [34] was > 100 µM. For the same compound, the TGI [35] was > 100 µM, the TGI [36] was > 100 µM and the TGI [38] was > 100 µM. For the same compound, the TGI [39] was > 100 µM, the TGI [41] was > 100 µM and the TGI [42] was > 100 µM. The TGI [64] was > 100 µM, the TGI [43] was > 100 µM and the TGI [44] was > 100 µM. For the same compound, the TGI [65] was > 100 µM, the TGI [45] was > 100 µM and the TGI [46] was > 100 µM. The TGI [47] was > 100 µM, the TGI [48] was > 100 µM and the TGI [59] was > 100 µM. The TGI [49] was > 100 µM, the TGI [50] was > 100 µM and the TGI [52] was > 100 µM. The TGI [53] was > 100 µM, the TGI [54] was > 100 µM and the TGI [55] was > 100 µM. The TGI [66] was > 100 µM.
